Legend:
[1] = test system: NADPH oxidase activity in monocytes; test: AOPP-HSA-induced NADPH oxidase activity in monocytes, lucigenin chemiluminescence; assay type: cell-based; settings: AOPP-HSA 2 mg/ml, counts/min over 40 minutes, FIG. 2B
Protocol: (§1) Human serum albumin (HSA) was exposed to HOCl at a molar HSA/HOCl molar ratio of 1/60. The AOPP-HSA preparation was incubated 30 minutes at room temperature and then dialysed overnight against PBS. Isolation of monocytes was performed by an indirect magnetic labelling system which allows the magnetic depletion of non monocytes i.e., T cells, B cells, NK cells, dendritic cells and basophils from a mononuclear cell suspension (obtained by blood sedimentation on a Ficoll gradient) using a cocktail of CD3, CD7, CD19, CD45RA, CD56 and anti-IgE antibodies. Purified monocytes were resuspended at a concentration of 2.5×10^6/ml in phenol-red free Hank's balanced salt solution (HBSS). The capacity of AOPP-HSA to activate monocyte or neutrophil oxygenation activities was measured by chemiluminescence using dimethylbiacridinium (lucigenin) for NADH oxidase activity or luminol for myeloperoxidase activity as chemoluminogenic substrates. One hundred microliters of monocyte suspension (2×10^5/ml) was automatically injected into the luminometer tubes containing 100 μl of HBSS (basal activity), or the tested preparations including: native HSA or AOPP-HSA at 2 mg/ml. Chemiluminescence production was measured in duplicate and luminescence intensity was expressed in counts/min integrated over a 40 minutes period.

[2] = test system: NADPH oxidase activity in neutrophils; test: AOPP-HSA-induced NADPH oxidase activity in neutrophils, lucigenin chemiluminescence; assay type: cell-based; settings: neutrophils preincubated with various concentrations of NAC, AOPP-HSA 2 mg/ml, FIG. 2A
Protocol: (§2) Human serum albumin (HSA) was exposed to HOCl at a molar HSA/HOCl molar ratio of 1/60. The AOPP-HSA preparation was incubated 30 minutes at room temperature and then dialysed overnight against PBS. Neutrophils from the Ficoll gradient pellet were separated from erythrocytes by sedimentation in dextran. Residual erythrocytes were lysed by treating the cell pellet with lysis buffer containing ammonium chloride. Purified neutrophils were resuspended at a concentration of 5×10^6/ml in phenol-red free HBSS at pH 7.4 and preincubated with medium alone or various concentrations of NAC. The capacity of AOPP-HSA to activate monocyte or neutrophil oxygenation activities was measured by chemiluminescence using dimethylbiacridinium (lucigenin) for NADH oxidase activity or luminol for myeloperoxidase activity as chemoluminogenic substrates. One hundred microliters of monocyte suspension (2×10^5/ml) was automatically injected into the luminometer tubes containing 100 μl of HBSS (basal activity), or the tested preparations including: native HSA or AOPP-HSA at 2 mg/ml. Chemiluminescence production was measured in duplicate and luminescence intensity was expressed in counts/min integrated over a 40 minutes period.

[3] = test system: myeloperoxidase activity in monocytes; test: AOPP-HSA-induced myeloperoxidase activity in monocytes, luminol chemiluminescence; assay type: cell-based; settings: AOPP-HSA 2 mg/ml, counts/min over 40 minutes, FIG. 1B
Protocol: as §1

[4] = test system: myeloperoxidase activity in neutrophils; test: AOPP-HSA-induced myeloperoxidase activity in neutrophils, luminol chemiluminescence; assay type: cell-based; settings: neutrophils preincubated with various concentrations of NAC, AOPP-HSA 2 mg/ml, FIG. 1A
Protocol: as §2

[5] = test system: patients undergoing dialysis; settings: oral administration; Atherosclerosis 120 (1996) 241-244; cited from earlier work

- inhibition of NADPH oxidase activity triggered by AOPP-HSA [1]: dose-dependent inhibition
- inhibition of myeloperoxidase activity triggered by AOPP-HSA [3]: dose-dependent inhibition
SMILES: CC(=O)N[C@@H](CS)C(=O)O [NAC, N-acetylcysteine]
- inhibition of NADPH oxidase activity triggered by AOPP-HSA [2]: dose-dependent inhibition
- inhibition of myeloperoxidase activity triggered by AOPP-HSA [4]: dose-dependent inhibition
- efficacy in the treatment of patients undergoing dialysis [5]: without efficacy
